{
  "source": "patent US10300070B2",
  "about": "“Metabolically-activated drug conjugates to overcome resistance in cancer therapy” (The Brigham and Women's Hospital, Inc., priority 2014, dated 2019)",
  "key": {"MDA-MB-231 parent or DTC": {"tested_on": "MDA-MB-231 parent or DTC", "experiment": "Glucose uptake (2-NBDG) determined by FACS", "assay_type": "cell-based", "settings": "sub-lethal docetaxel (25 nM), MDA-MB-231", "procedure": "MDA-MB-231 (ATCC), MDA-MB-468 and 4T-1 mammary carcinoma cells (ATCC) were cultured in DMEM containing 10% Fetal Bovine Serum (FBS) at 37 C and 5% CO2. DU145 and DU145-TxR were provided by A. Mizokami^63 and cultured in DMEM containing 10% FBS, resistant line included 100 nM paclitaxel in the culture media. During treatments with chemotherapeutics, cells were grown to semi-confluence and treated with indicated concentrations of chemotherapy in serum-containing medium for indicated time points. When small molecule inhibitors were included in treatments, they were added simultaneously with chemotherapy. For siRNA gene knockdown, cells were transfected with silencer-select siRNA plasmids (Ambion, Invitrogen, Grand Island, N.Y.) pan-CD44(1) (s2682) panCD44(2) (s2681), siHIF1A (s6539) using lipofectamine 2000 (Invitrogen, Carlsbad Calif.) following manufacturer protocol and cultured for 72 hours prior to treatment. Scrambled siRNA was used as a control. For chemotherapy treatment experiments: Cancer cells were plated at a density of 0.5-1×10^5 cells/ml and allowed to adhere for 24-48 hr. When cells reached ˜70% confluency they were treated with cytotoxics at indicated concentrations for 24-48 hours and utilized for subsequent assays. For experiments in which a shorter incubation was used (i.e. 15 min-4 hours) fresh media was added 24 hours prior to addition of chemotherapy suspended to stock concentration in PBS. For generation of DTC: Cells were treated for 48 hours with chemotherapy. Following washes with PBS, adherent cells were trypsinized and re-plated at a density of 1.5-2×10^5 cells/ml and cultured in serum-containing medium. After 24 hours incubation, floating cells were removed and remaining cells were washed with 1× PBS and considered as chemotherapy-tolerant cells. A population of drug naïve parent cells were always cultured alongside DTC and fresh media was added at every interval that experimental population (DTC) received fresh media.\nIn vitro detection of glucose uptake was performed using 2-(N-7-Nitrobenz-2-oxa-1,3-diazol-4-yl)Amino)-2-Deoxyglucose (2-NBDG) (Invitrogen, Carlsbad Calif.), dissolved in DMSO to 50 mM. Cells were pre-treated with kinase inhibitors or vehicle for 3 hours in glucose- and phenol red-free media before addition of 50 μM 2-NBDG and subsequently read by FACS ex/em 488/535 nm. ROS was determined by pre-loading cells with CM-DCFDA (1 μM), washed 2 times with PBS and subsequently treated with H2O2 or vehicle; when kinase inhibitors were included in treatment, cells were first incubated with inhibitor for 3 hours prior to CM-DCFDA loading. Fluorescence was then determined by FACS ex/em 488/535 nm. For the following assays, cells were trypsinized and counted by Nexcelom cell counter (Lawrence, Mass.) prior to being subjected to analysis in order to achieve a quantitative value per cell: Reduced glutathione was determined using a colorimetric glutathione recycling system by DTNB following manufacturer protocol (Biovision, Milpitas Calif.). ATP analysis was performed using the ATP colorimetric analysis kit (Biovision) according to manufacturer protocol. Reductive stress was detected using the Enzo nitroreductase hypoxia kit (Enzo Life Sciences, Ann Arbor Mich.) following manufacturer protocol and visualized by fluorescent microscopy; a set of non-docetaxel-treated control cells loaded with fluorescent probe were compared against docetaxel-treated cells to derive a % redox stress increase which was calculated as fluorescence intensity of nitroreductase probe per cell and expressed as increase from vehicle. Protein synthesis was measured by two means 1. L-azidohomoalanine amino acid analog of methionine containing an azide moiety was added to cultured cells (parent or DTC) for 3 hours which is incorporated into proteins during active protein synthesis. […]"}, "CD44": {"tested_on": "CD44", "experiment": "Cell surface CD44 expression by FACS", "assay_type": "cell-based", "settings": "sub-lethal docetaxel (25 nM), MDA-MB-231", "procedure": "DU145 and DU145-TxR were provided by A. Mizokami^63 and cultured in DMEM containing 10% FBS, resistant line included 100 nM paclitaxel in the culture media. During treatments with chemotherapeutics, cells were grown to semi-confluence and treated with indicated concentrations of chemotherapy in serum-containing medium for indicated time points. When small molecule inhibitors were included in treatments, they were added simultaneously with chemotherapy. […] Scrambled siRNA was used as a control. For chemotherapy treatment experiments: Cancer cells were plated at a density of 0.5-1×10^5 cells/ml and allowed to adhere for 24-48 hr. […] Following washes with PBS, adherent cells were trypsinized and re-plated at a density of 1.5-2×10^5 cells/ml and cultured in serum-containing medium. […] A population of drug naïve parent cells were always cultured alongside DTC and fresh media was added at every interval that experimental population (DTC) received fresh media.\nCells were cultured as indicated, removed from culture dishes with accutase stem-pro dissociation reagent (Invitrogen, Carlsbad Calif.) and fixed with 4% paraformaldehyde in PBS for 30 min at RT, washed twice with PBS and blocked in 10% goat serum (v/v). Whenever necessary, cells were permeabilized with 0.05% saponin in PBS. Cells were incubated with CD44-APC (BD biosciences, San Jose, Calif.) overnight at 4 C and analyzed by FACS (C6 Accuri cyomteters Inc Ann Arbor, Mich.), data analysis using FlowJo software (Tree Star Inc., Ashland Oreg.) and Accuri cFlow plus software to obtain and confirm mean fluorescent intensity (GNU.org)."}},
  "data": [
    {"compound": "CC(=O)O[C@@]12CO[C@@H]1C[C@H](O)[C@@]1(C)C(=O)[C@H](O)C3=C(C)[C@@H](OC(=O)[C@H](O)[C@@H](NC(=O)OC(C)(C)C)c4ccccc4)C[C@@](O)([C@@H](OC(=O)c4ccccc4)[C@H]21)C3(C)C", "note": "[docetaxel]", "values": [
      {"measurement": "time point at which augmented glucose uptake was observed", "setting": "MDA-MB-231 parent or DTC", "result": 24, "unit": "h"},
      {"measurement": "time to induction of cell surface CD44", "setting": "CD44", "result": "≤ 4", "unit": "h"}
    ]}
  ]
}
